The values that follow come from PMC6270409, “Synthesis and Anti-Influenza Virus Activities of a Novel Class of Gastrodin Derivatives” (Molecules, 2013).

Read-outs that look alike come from different tables or passages of the source. Marks after values point to notes of the source that are not given here.

The test system of data set [1] is influenza A/FM/1/47(H1N1). The data set can be described thus: microbe, parasite or virus in culture. The data set is classed as cell-based, influenza A virus.
The subject of data set [2] is influenza A/Hanfang/359/95(H3N2). The data set can be described thus: microbe, parasite or virus in culture. The data set is classed as cell-based, influenza A virus.
Data set [3] concerns influenza virus M2 protein expression. The data set is classed as cell-based, influenza virus A/Wuhan/359/95.
For data set [4], the system named is influenza B (B/Jifang/13/97). The data set can be described thus: Anti-influenza CPE assay in MDCK cells, oseltamivir-null B/Jifang/13/97. The data set is classed as cell-based. As to conditions: Influenza B virus, read-out: IC50 B/Jifang/13/97.
For data set [5], the system named is influenza A/FM/1/47-MA (H1N1) virus. The data set is classed as in vivo, mice. As to conditions: for Mean day to death: b.i.d x 7, mean survival time of mice dying on or before day 14; for Mean lung score / Lung consolidation: day 6 post-virus exposure; for Lung consolidation: score 0-4; for numbers of surviving animals: survivors/total.
For data set [6], the system named is neuraminidase of the two influenza virus A strain. The data set can be described thus: Neuraminidase inhibition assay (MUNANA), two influenza A strains. The data set is classed as biochemical. As to conditions: MUNANA substrate.
In a further data set the test system is viral hemagglutinin. The data set can be described thus: Hemagglutination inhibition assay. As to conditions: 2 fold serial diluted from 40 μg/mL, chicken erythrocytes. The data set is classed as biochemical, influenza virus.
A further data set relates to MDCK cells. The experiment in a line: Cytotoxicity assay in MDCK cells monitored by CPE. As to conditions: 48 h, Table 1.

As for `CCOC(=O)C1=C[C@@H](OC(CC)CC)[C@H](NC(C)=O)[C@@H](N)C1` [Oseltamivir, reference compound], the IC50 in [1] (Influenza A virus, H1N1, MDCK) is 57.5 µM; in data set [2] (Influenza A virus, H3N2, MDCK), 2.08 µM; in [4] it was > 100 µM. The “effect on influenza virus M2 protein expression” value in data set [3] is listed as “has inhibitory effect”.
On to `NC(=O)c1ncn([C@@H]2O[C@H](CO)[C@@H](O)[C@H]2O)n1` [Ribavirin, reference compound], for which the IC50 in data set [1] (Influenza A virus, H1N1, MDCK) is 13.5 µM. In addition, in [2] (10 μg/mL, strain not given), the “influenza virus induced cytopathic effect” value was “completely inhibits”. The same compound showed an IC50 in data set [2] (Influenza A virus, H3N2, MDCK) of 11.9 µM. In data set [3], the “effect on influenza virus M2 protein expression” value was “significant inhibitory effect”. In addition, in data set [5] (100 mg/kg/day po), the “Mean day to death” value was 14.0 * days, the Mean lung score turned out to be 1.31 ± 0.34 and the Lung consolidation is recorded as 0.50 *. The “% Survivors” value in data set [5] (mouse, in vivo) is reported as 100 (10/10) %. Further, the IC50 in data set [4] was determined as 11.4 µM.
In the case of `COC(=O)c1ccc(F)c(O[C@@H]2O[C@H](COC(C)=O)[C@@H](OC(C)=O)[C@H](OC(C)=O)[C@H]2OC(C)=O)c1` [Compound 1a, Methyl 4-fluoro-3-((2S,3R,4S,5R,6R)-3,4,5-triacetoxy-6-(acetoxymethyl)-tetrahydro-2H-pyran-2-yloxy)benzoate], the IC50 in data set [1] was 34.5 µM; in data set [1] (Influenza A virus, H1N1, MDCK) it was 34.4 µM; in data set [2] (Influenza A virus, H3N2, MDCK) it was 44.4 µM; in data set [4] it was 33 µM. The “effect on influenza virus M2 protein expression” value in data set [3] (MDCK cells infected with A/Wuhan/359/95, 300TCID50, 24 hours post infection) is on record as “no effect”. In [6], the IC50 on neuraminidase was > 40 µg/mL. The “numbers of surviving animals” value in [5] (40 mg/kg/day intragastrically) was 1/10; in data set [5] (80 mg/kg/day intragastrically), 6/10. Also, the results for the Mean lung score in data set [5] (40 mg/kg/day po) and in data set [5] (80 mg/kg/day po) were 2.61 ± 0.85 and 1.82 ± 0.82, respectively. Also, the results for the Lung consolidation in [5] (40 mg/kg/day po) and in data set [5] (80 mg/kg/day po) were 3.56 and 2.25, respectively. For the same compound, the “Mean day to death” value in [5] (80 mg/kg/day po) came to 11.3 days. Moreover, the “inhibitory effect on hemagglutination” value in the data set with viral hemagglutinin was “did not show an inhibitory effect”.
`COC(=O)c1ccc(F)cc1O[C@@H]1O[C@H](COC(C)=O)[C@H](OC(C)=O)[C@H](OC(C)=O)[C@H]1OC(C)=O` [Compound 8b, Methyl 4-fluoro-2-((2S,3R,4S,5S,6R)-3,4,5-triacetoxy-6-(acetoxymethyl)-tetrahydro-2H-pyran-2-yloxy)benzoate] showed a melting point of 136 to 138 °C. Moreover, the TC50 in the data set with MDCK cells was >399.66 µM. For the same compound, the IC50 in [1] (Influenza A virus, H1N1, MDCK) was > 400 µM. Further, the IC50 in [2] (Influenza A virus, H3N2, MDCK) was > 400 µM.
Take `NC12CC3CC(CC(C3)C1)C2` [Amantadine]: in [3], the “effect on influenza virus M2 protein expression” value is “significantly inhibited”.
“Methyl 4-((2S,3R,4S,5R,6R)-3,4,5-triacetoxy-6-(acetoxymethyl)-tetrahydro-2H-pyran-2-yloxy)benzoate [Compound 5a]” returned a TC50 in the data set with MDCK cells of 232.53 µM. For the same compound, the IC50 is > 134 µM in data set [1] and 93.6 µM in data set [2].

By melting point is commonly meant the temperature of the solid-liquid transition.
